In patent publication EP1980561B1, “Substituted 1h-pyrazolo[3,4-b] pyridine derivatives active as kinase inhibitors” (NERVIANO MEDICAL SCIENCES S.R.L., priority 2007, dated 2008):
Read-outs that look alike come from different tables or passages of the source.

What was measured:
[1] = target: T1, AKT2 (Homo sapiens, UniProt P31751); experiment: Biochemical assay for inhibitors of AKT2 kinase activity (33P trans-phosphorylation, Dowex resin); details: 10 nM enzyme, 396 microM ATP, 8.5 microM peptide substrate
T1 construct: GST (N); made in house
Protocol: (§1) The N-terminal GST fusion proteins used for the assays were prepared according to the methods described in Kumar, C. C. Biochem. Biophys. ACTA 2001, 1526, 257-268, and in Alessi, D. R.. Biochem. J. 1998 331, 299-308.
The in vitro kinase inhibition assay was conducted in the same way as described for AKT1. The kinase assay was run with a final enzyme concentration of 10 nM, in the presence of 396 microM ATP, 0.88 nM ^33P-γ-ATP and 8.5 microM substrate, a carboxy-terminally biotinylated peptide of the following sequence:
ARKRERTYSFGHHA-biotin. The peptide was obtained in batches of >95% peptide purity from PRIMM labs Inc. (Boston MA, USA).

[2] = target: AKT3 (Homo sapiens, UniProt Q9Y243); experiment: Biochemical assay for inhibitors of AKT3 kinase activity (33P trans-phosphorylation, Dowex resin)
Protocol: The N-terminal GST fusion proteins used for the assays were prepared according to the methods described in Kumar, C. C. Biochem. Biophys. ACTA 2001, 1526, 257-268, and in Alessi, D. R.. Biochem. J. 1998 331, 299-308. The in vitro kinase inhibition assay was conducted in the same way as described for AKT1. The kinase assay was run with a final enzyme concentration of 1 nM, in the presence of 180 microM ATP, 0.88 nM ^33P-γ-ATP and 28.5 microM substrate, a carboxy-terminally biotinylated peptide of the following sequence: ARKRERTYSFGHHA-biotin. The peptide was obtained in batches of >95% peptide purity from PRIMM labs Inc. (Boston MA, USA).

[3] = target: T2, PKAα (Homo sapiens, UniProt P17612); experiment: FABS-NMR screening (3-FABS, 19F-labelled AKTide-like substrate) on PKA; type: biochemical; details: 25 nM protein, 30 µM substrate, 150 µM ATP
T2 construct: polyHis; made in house; host or cells: E. coli
Protocol: (§2) The biochemical functional NMR screening on the proteins kinase AKT-1 and PKA was performed using the 3-FABS (3-Fluorine Atoms for Biochemical Screening) technique developed by C. Dalvit and the NMR group in house (C. Dalvit et al 2003 J. Am. Chem. Soc. 125 (47): 14620).
(§3) The method require the use of a ^19F-labelled substrate. The same commercial peptide was used as substrate in both enzymatic reaction: the Tyr just before the phosphorilation site in the AKTide peptide was mutated in a 3-tryfluormethyl-Phe by Bachem.
(§4) The AKTide like peptide sequence is reported below: • H-Ala-Arg-Lys-Arg-Glu-Arg-Ala-Phe(3-CF3)-Ser-Phe-Gly-His-His-Ala-OH
The active cycled AMP-dependent human protein kinase A PKA was expressed as polyHis-tag protein in E.Coli and purified by affinity column.
(§5) Reactions were performed in an end point format in eppendorf of 0.5 ml using the buffer solution 50mM Tris, pH 7.5, 5mM MgCl2, 1mM DTT, 8% D2O and 0.001% Triton-X-100; the final volume was of 560 µl. […] The spectra were recorded using the Varian Inova 600 MHz NMR spectrometer operating at a ^19F Larmor frequency of 564 MHz and using a 5mm probe with the inner coil tuned to ^19F and the outer coil tuned to H. The data were recorded without proton decoupling with a spectral width of 12000 Hz, an acquisition time of 0.8s and a relaxation delay of 2.8s. […]

[4] = tested on: S6 ribosomal protein phosphorylation (Ser235/236) in MCF-7 cells; experiment: Inhibition of AKT induced S6 ribosomal protein phosphorylation in MCF7 (immunofluorescence, ArrayScan); type: cell-based; details: Homo sapiens, compound treatment for 4 hour at 37°C, read-out: S6 phosphorylation (Ser235/236) in MCF7-cell IC50
Protocol: MCF-7 cells (ATCC# HTB-22) were seeded in 96-well poly-lysine coated clear- and flat-bottomed black plates (Matrix Technologies Inc., Hudson, NH, USA), in E-MEM medium (MEM+ Earle's BSS + 2 mM glutamine + 0.1 mM non-essential amino acids) containing 10% of FCS at a density of 7000 cells/well, and incubated overnight at 37°C, 5% CO2, 100% relative humidity. After this incubation, cells were treated with increasing compound doses for 4 hour at 37°C. Afterwards, cells were fixed with PBS/3.7% paraformaldehyde for 15 min at room temperature, wash twice with 200 µl/well D-PBS and permeabilize with a D-PBS solution containing 0.1% Triton X-100 (Sigma-Aldrich, St. Louis, MO, USA) and 0.1% powder Milk for 15 minutes (staining solution). […] Fluorescence images in the DAPI and Cy5™ channels were automatically acquired, stored and analysed using a Cellomics ArrayScan™ IV instrument (Cellomics, Pittsburgh, USA); the Cellomics Cytotoxicity Algorithm was used to quantify cytoplasmic fluorescence associated with phospho-S6 (Cy5™ signal parameter: "Mean Lyso Mass-pH") for each cell in 10 fields/well, and eventually expressed as a mean population value. […]

[5] = target: T3, AKT1 (Homo sapiens, UniProt P31749); experiment: Biochemical assay for inhibitors of AKT1 kinase activity (33P trans-phosphorylation, Dowex resin); parameters: GST (N); made in house; details: 5 nM enzyme, 132 microM ATP, 30 microM peptide substrate, 60 minutes at room temperature
Protocol: as §1
The inhibitory activity of putative kinase inhibitors and the potency of selected compounds were determined using a trans-phosphorylation assay.
A specific substrate was incubated with the kinase in appropriate buffer conditions in the presence of ATP traced with ^33P-γ-ATP (gamma phosphate-labeled, Redivue™
Code Number AH9968, 1000-3000Ci/mmole, Amersham Biosciences Piscataway, NJ, USA), optimal cofactors and test compound.
At the end of the phosphorylation reaction, more than 98% cold and radioactive ATP were captured by an excess of Dowex ion exchange resin. The resin was allowed to settle to the bottom of reaction wells by gravity. Supernatant, containing substrate peptide, was subsequently withdrawn and transferred into a counting plate, and radioactivity (corresponding to phosphate incorporated into peptide) was evaluated by β-counting.
Kinase buffer was composed of 50 mM TRIS pH 7.5 containing10 mM MgCl2, 1 mM DTT, 3 microM Na3VO4, and 0.2 mg/mL BSA. 3X KB is buffer of the same composition and pH as KB, but with three times the concentration of each component. […]

[6] = target: T3, AKT1; experiment: FABS-NMR screening (3-FABS, 19F-labelled AKTide-like substrate) on AKT-1; type: biochemical; parameters: The active human Ser-Thr protein kinase AKT-1 Full Length was expressed as GST fusion protein; GST (cleaved yes); made in house; host or cells: insect cells; details: 25 nM protein, 30 µM substrate, 1.5 mM ATP; read-out: AKT1 IC50 FABS NMR assay
Protocol: as §2, §3, §4
The active human Ser-Thr protein kinase AKT-1 Full Length was expressed as GST fusion protein in insect cells and then the GST was cleaved with PreScission protease.
as §5

T3 sequence (P31749 whole entry): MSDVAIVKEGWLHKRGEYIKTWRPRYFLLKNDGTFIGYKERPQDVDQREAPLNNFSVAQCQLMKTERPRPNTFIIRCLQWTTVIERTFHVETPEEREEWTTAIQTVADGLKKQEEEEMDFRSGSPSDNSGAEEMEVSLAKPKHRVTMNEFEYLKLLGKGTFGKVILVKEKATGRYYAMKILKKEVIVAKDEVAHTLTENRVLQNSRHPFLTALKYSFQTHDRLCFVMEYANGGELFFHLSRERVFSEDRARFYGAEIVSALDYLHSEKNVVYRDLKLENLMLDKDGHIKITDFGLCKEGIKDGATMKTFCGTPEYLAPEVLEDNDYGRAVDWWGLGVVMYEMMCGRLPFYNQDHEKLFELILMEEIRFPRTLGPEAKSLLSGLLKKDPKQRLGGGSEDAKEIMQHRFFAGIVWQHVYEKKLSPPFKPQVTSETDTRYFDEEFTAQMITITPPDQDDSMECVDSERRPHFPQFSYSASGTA
T1 sequence (P31751 whole entry, species assumed): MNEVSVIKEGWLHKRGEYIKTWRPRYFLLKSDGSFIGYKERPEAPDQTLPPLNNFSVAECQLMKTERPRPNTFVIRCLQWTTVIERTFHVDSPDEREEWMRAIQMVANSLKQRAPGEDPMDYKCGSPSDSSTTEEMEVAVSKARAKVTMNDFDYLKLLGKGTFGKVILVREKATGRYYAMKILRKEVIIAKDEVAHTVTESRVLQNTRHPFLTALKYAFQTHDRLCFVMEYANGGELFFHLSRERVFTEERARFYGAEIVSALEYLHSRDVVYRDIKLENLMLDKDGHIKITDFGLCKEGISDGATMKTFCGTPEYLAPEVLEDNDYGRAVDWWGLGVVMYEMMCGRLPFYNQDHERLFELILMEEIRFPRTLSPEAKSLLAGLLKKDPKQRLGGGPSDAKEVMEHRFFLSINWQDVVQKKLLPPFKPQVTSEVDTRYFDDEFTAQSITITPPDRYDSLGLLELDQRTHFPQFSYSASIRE
Chain of AKT3 (Q9Y243 2-479): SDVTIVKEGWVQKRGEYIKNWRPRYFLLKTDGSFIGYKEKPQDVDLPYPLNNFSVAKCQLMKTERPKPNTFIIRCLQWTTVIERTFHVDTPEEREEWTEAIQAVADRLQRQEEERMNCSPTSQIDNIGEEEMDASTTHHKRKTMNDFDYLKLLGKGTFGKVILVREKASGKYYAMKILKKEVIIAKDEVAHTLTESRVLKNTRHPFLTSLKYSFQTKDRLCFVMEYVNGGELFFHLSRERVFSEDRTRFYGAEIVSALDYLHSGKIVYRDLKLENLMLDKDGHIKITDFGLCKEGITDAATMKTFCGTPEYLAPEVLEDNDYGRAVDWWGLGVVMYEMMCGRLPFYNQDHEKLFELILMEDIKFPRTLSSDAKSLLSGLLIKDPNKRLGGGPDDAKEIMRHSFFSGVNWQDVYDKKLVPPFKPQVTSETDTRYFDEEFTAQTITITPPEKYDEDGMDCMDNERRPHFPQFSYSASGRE

| IC50 ([2]; 1 nM enzyme, 180 microM ATP, 28.5 microM peptide substrate, read-out: AKT3 IC50 Biochemical assay) | Structure (SMILES) | IC50 [1] | IC50 [2] | IC50 [3] | IC50 [4] | IC50 [5] | IC50 [6] |
| --- | --- | --- | --- | --- | --- | --- | --- |
| – | NC[C@H](Cc1ccccc1)NC(=O)/C=C/c1n[nH]c2ncccc12 [Compound 1, (E)-N-((S)-2-amino-1benzyl-ethyl)-3-(1H-pyrazolo[3,4-b]pyridin-3-yl)acrylamide tris(trifluoroacetate)] | 92 nM | 19 nM | 25 nM | 1350 nM | 17 nM | 62 nM |
| 108 nM | CN1CCN(C[C@@H](NC(=O)/C(=C/c2n[nH]c3ncccc23)c2cn(C)c3ccc(Br)cc23)c2ccccc2)CC1 [Compound 10, (2E)-2-(5-bromo-1-methyl-1H-indol-3-yl)-N-[(1S)-2-(4-methylpiperazin-1-yl)-1-phenylethyl]-3-(1H-pyrazolo[3,4-b]pyridin-3-yl)acrylamide] | 786 nM | – | 1900 nM | 16000 nM | 149 nM | 62 nM |
